# Experimental data taken from patent US9586907B2, “Isothiocyanate compounds, pharmaceutical compositions, and uses thereof” (priority 2006, dated 2017).
# Marks after values point to notes of the source that are not given here.
# Legend:
# Candida dlabrata 250^mdr = test: Anti-fungal MIC, Candida dlabrata 250^mdr
# Candida albicans 90030 = test: Anti-fungal MIC, Candida albicans 90030
# [1] = test system: Cryptococcus neoformans CNH99; test: Anti-fungal MIC, Cryptococcus neoformans CNH99
# [2] = test system: Staphylococcus epidermidis; test: Activity against Staphylococcus epidermidis (data not shown); type: cell-based
# [3] = test system: Aspergillus fumigatus Rit 11; test: Anti-fungal MIC, Aspergillus fumigatus Rit 11
# Bacillus cereus = test: Activity of ITC compounds against Bacillus cereus; type: cell-based
# Candida crusei 6258^mdr [4] = test: microbe, parasite or virus in culture; details: read-out: Anti-Fungal Activity (MIC)
# [5] = test system: methicillin-resistant Staphylococcus aureus (MRSA); test: Activity against MRSA (data not shown); type: cell-based
# [6] = test system: Aspergillus fumigatus Rit 1; test: Anti-fungal MIC, Aspergillus fumigatus Rit 1
# Candida albicans 90028 = test: Anti-fungal MIC, Candida albicans 90028
# [7] = test system: Candida parapsilosis 22019; test: Anti-fungal MIC, Candida parapsilosis 22019
# [8] = test system: Aspergillus fumigatus Rit 21; test: Anti-fungal MIC, Aspergillus fumigatus Rit 21
# [9] = test system: Candida albicans 5108^mdr; test: Anti-fungal MIC, Candida albicans 5108^mdr
# [10] = test system: clinical isolates of bacteria and fungus (including yeasts); test: General antimicrobial activity, semi-quantitative score on collection of clinical isolates; type: cell-based; details: Table 1 screen
# Description: The growth inhibitory effect of a number of various ITC compounds were tested on large collection of clinical isolates of bacteria and fungus (including yeasts), in order to establish a systematic structure-activity relationship for the ITC compounds. […] To assess the average activity for an individual ITC compound, the semi-quantitative score was calculated for each compound based on the number of sensitive bacterial strains at concentrations of 100 and 200 μM.
# [11] = In vivo tolerance in mice; details: highest dose, 50 mg/kg
# M. avium = test: MIC, M. avium; type: cell-based; details: M. avium
# [12] = test system: Mycobacterium tuberculosis H37Rv strain; test: In vitro infection model, bacterial growth inhibition in infected macrophages; type: cell-based; details: M. tuberculosis H37Rv; up to 1 μg/mL; Rifampicin control
# Description: Rifampicin was used as a control for this experiment.
# M. intracellularie = test: MIC, M. intracellularie; type: cell-based; details: M. intracellularie
# M. bovis BCG = test: microbe, parasite or virus in culture; type: cell-based
# M. tuberculosis H37Rv = test: MIC, M. tuberculosis H37Rv; type: cell-based
# Description: (§1) Next, several of the bifunctional ITC compounds were tested for their ability to inhibit the growth of some clinical isolates of Mycobacteria, the results of which are summarized in Table 3 below.
# M. tuberculosis W = test: MIC, M. tuberculosis W; type: cell-based
# Description: as §1
# M. tuberculosis W4 = test: MIC, M. tuberculosis W4; type: cell-based
# Description: as §1
# Candida crusei 6258^mdr [13] = test system: Candida crusei 6258^mdr
# [14] = test system: human peritoneal macrophages infected with Mycobacterium tuberculosis H37Rv strain; test: In vitro infection model, cytotoxicity; details: up to 1 μg/mL; Rifampicin control
# virus (92TH594) = test: Viral proliferation in PBMC, p24 viral antigen; type: cell-based; details: for P24 values: PBMC
# Mycobacteria = type: cell-based; details: Table 3
# M. cansassi = test: MIC, M. cansassi; type: cell-based; details: M. cansassi
# [15] = test system: human acute monocytic leukemia cells (THP1 cells); test: Growth of THP1 cells, MTT metabolic assay; type: cell-based; details: highest dosage of 32 μg/mL, 24 hours
# Description: THP1 cells were either mock-treated (DMSO vehicle alone), or treated with increasing doses of new compounds 37 and 45, from 0 to 32 μg/mL. Cells were incubated in the presence of compound for 24 hours, and subsequently were assayed for total cell viability using an MTT, metabolic assay.
# M. tuberculosis 210 = test: MIC, M. tuberculosis 210; type: cell-based
# Description: as §1
# M. tuberculosis P = test: MIC, M. tuberculosis P; type: cell-based
# Description: as §1
# M. scrofulaceum = test: MIC, M. scrofulaceum; type: cell-based; details: M. scrofulaceum
# M. tuberculosis CDC1551 = test: MIC, M. tuberculosis CDC1551; type: cell-based
# Description: as §1
# M. tuberculosis AB = test: MIC, M. tuberculosis AB; type: cell-based
# Description: as §1
# M. fortuitum = test: MIC, M. fortuitum; type: cell-based; details: M. fortuitum
smiles,measurement,setting,value
S=C=NCc1ccc2ccc3cccc4ccc1c2c34 [Compound 33],MIC,"Candida dlabrata 250^mdr; Candida, read-out: Anti-Fungal Activity (MIC)",64 µg/mL
same,MIC,"Candida albicans 90030; Candida albicans, 90030, read-out: Anti-Fungal Activity (MIC)",8 µg/mL
same,MIC,"[1]; Cryptococcus neoformans, CNH99, read-out: Anti-Fungal Activity (MIC)",4 µg/mL
same,activity against Staphylococcus epidermidis (in words),[2],very efficient
same,MIC,"[3]; Aspergillus fumigatus, RIT11, read-out: Anti-Fungal Activity (MIC)",> 64 µg/mL
same,activity against Bacillus cereus (in words),Bacillus cereus,very efficient
same,MIC,Candida crusei 6258^mdr [4],> 64 µg/mL
same,activity against MRSA (in words),[5],very efficient
same,MIC,"[6]; Aspergillus fumigatus, RIT1, read-out: Anti-Fungal Activity (MIC)",> 64 µg/mL
same,MIC,"Candida albicans 90028; Candida albicans, 90028, read-out: Anti-Fungal Activity (MIC)",32 µg/mL
same,MIC,"[7]; 22019, read-out: Anti-Fungal Activity (MIC)",32 µg/mL
same,MIC,"[8]; Aspergillus fumigatus, RIT21, read-out: Anti-Fungal Activity (MIC)",> 64 µg/mL
same,MIC,"[9]; Candida albicans, read-out: Anti-Fungal Activity (MIC)",> 64 µg/mL
same,antimicrobial / growth-inhibitory activity (in words),[10],poor growth-inhibitory activity
"OCCCCCCCCN=C=S [Compound 45, HO—(CH2)8—N═C═S]",toxicity in treated mice,[11],no toxicity was observed
same,MIC,M. avium,4 µg/mL
same,growth inhibitory activity in infected macrophages,[12],comparabale with the inhibition observed for Rifampicin
same,Anti-Fungal Activity (MIC),"Candida dlabrata 250^mdr; Candida dlabrata 250^mdr, MIC determined at 48 hours of growth",4** μg/mL
same,MIC,M. intracellularie,4 µg/mL
same,Anti-Fungal Activity (MIC),Candida albicans 90030; Candida albicans 90030,4 µg/mL
same,Anti-Fungal Activity (MIC),[1]; Cryptococcus neoformans CNH99,<1 µg/mL
same,MIC,M. bovis BCG,0.5 µg/mL
same,MIC,M. tuberculosis H37Rv,1 µg/mL
same,Anti-Fungal Activity (MIC),[3]; Aspergillus fumigatus Rit 11,8 µg/mL
same,MIC,M. tuberculosis W,1 µg/mL
same,MIC,M. tuberculosis W4,1 µg/mL
same,Anti-Fungal Activity (MIC),Candida crusei 6258^mdr [13],4 µg/mL
same,cytotoxicity in infected macrophages,[14],"low cytotoxicity, similar to Rifampicin"
same,difference in antiviral activity with and without preincubation prior to viral infection,virus (92TH594); Tables 5 and 6 compared,no detectable difference
same,P24 values,"virus (92TH594); compound 2.5 μg/ml, added to the cells after viral infection",975 pg/mL
same,P24 values,"virus (92TH594); compound 2.5 μg/ml, added to the cells before viral infection",960 pg/mL
same,P24 values,"virus (92TH594); compound 10 μg/ml, added to the cells after viral infection",7 pg/mL
same,P24 values,"virus (92TH594); compound 10 μg/ml, added to the cells before viral infection",6 pg/mL
same,activity against Mycobacteria (in words),Mycobacteria,highest activity
same,MIC,M. cansassi,1 µg/mL
same,effect on growth of THP1 cells,[15],not able to affect the growth of THP1 cells
same,Anti-Fungal Activity (MIC),[6]; Aspergillus fumigatus Rit 1,8 µg/mL
same,MIC,M. tuberculosis 210,1 µg/mL
same,MIC,M. tuberculosis P,2 µg/mL
same,MIC,M. scrofulaceum,8 µg/mL
same,MIC,M. tuberculosis CDC1551,2 µg/mL
same,MIC,M. tuberculosis AB,2 µg/mL
same,Anti-Fungal Activity (MIC),Candida albicans 90028; Candida albicans 90028,8 µg/mL
same,Anti-Fungal Activity (MIC),[7]; Candida parapsilosis 22019,8 µg/mL
same,MIC,M. fortuitum,4 µg/mL
same,Anti-Fungal Activity (MIC),[8]; Aspergillus fumigatus Rit 21,8 µg/mL
same,Anti-Fungal Activity (MIC),[9]; Candida albicans 5108^mdr,4 µg/mL
